# Measured values taken from article PMC10387993, “New pyrimidine-N-β-D-glucosides: synthesis, biological evaluation, and molecular docking investigations” (Turkish Journal of Chemistry, 2023).
# Tests used:
# Type in all cases: cell-based
# MCF7 = test: cells; settings: Homo sapiens; for LC50 (concentration causing 50% net cell loss relative to time zero): MCF7, read-out: LC50; for GI50 / IC50 / IC (total growth inhibition): MCF7, MTT; for IC50: read-out: IC50; for IC (total growth inhibition): read-out: TGI
# Method in brief: (§1)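 Cells were seeded at about 1 × 10^4 per well, brought to 200 μL with medium, and assessed by MTT: 4 h with MTT reagent, formazan dissolved in DMSO with Sorenson's buffer, absorbance read at 560 nm (690 nm reference). IC50 derived from percent inhibition relative to DMSO.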
# A549 = test: cells; settings: Homo sapiens; for LC50 (concentration causing 50% net cell loss): A549, read-out: LC50; for GI50 / IC50 / IC (total growth inhibition): A549, MTT; for IC50: read-out: IC50; for IC (total growth inhibition): read-out: TGI
# Method in brief: as §1
# HeLa = test: cells; settings: Homo sapiens; for GI50 / IC50 / IC (total growth inhibition): MTT; for IC50: read-out: IC50; for IC (total growth inhibition): read-out: TGI; for LC50 (concentration causing 50% net cell loss): read-out: LC50
# Method in brief: as §1
# HT29 = test: cells; settings: Homo sapiens; for LC50 (concentration giving 50% net cell loss relative to time zero): HT-29, read-out: LC50; for GI50 / IC50 / IC (total growth inhibition): HT-29, HT29, MTT; for IC50: read-out: IC50; for IC (total growth inhibition): read-out: TGI
# Method in brief: as §1
# C6 (Rat brain glioma) = test: cells; settings: Rattus norvegicus; for LC50 (concentration giving 50% net cell loss relative to time zero): read-out: LC50; for GI50 / IC50 / IC (total growth inhibition): C6, MTT; for IC50: read-out: IC50; for IC (total growth inhibition): read-out: TGI
# Method in brief: as §1
# Hep3B = test: cells; settings: Homo sapiens; for GI50 / IC50 / IC (total growth inhibition): MTT; for IC50: read-out: IC50; for IC (total growth inhibition): read-out: TGI; for LC50 (concentration causing 50% net cell loss relative to time zero): read-out: LC50
# Method in brief: as §1
# [1] = LDH cytotoxic activity assay, C6; settings: rat, C6 glioma cells; for cytotoxicity at 24 h, 25 μg/mL: C6, 25 μg/mL; for cytotoxicity at 24 h, 50 μg/mL: C6, 50 μg/mL; for cytotoxicity at 24 h, 75 μg/mL: C6, 75 μg/mL; for cytotoxicity at 24 h, 100 μg/mL: C6, 100 μg/mL
# Method in brief: (§2)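 About 5 × 10^3 cells per well, in triplicate, exposed to 25, 50, 75 and 100 μg/mL of test compound for 24 h at 37 °C, 5% CO2. Cells grown in DMEM or RPMI 1640 with 10% FBS. LDH activity read as absorbance at 492–630 nm.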
# S. gordonii NCTC 7870 = test: Microdilution MIC assay; settings: Streptococcus gordonii, NCTC7870; S. gordonii NCTC 7870, 24 h at 35 °C
# Method: (§3) MIC values of the compounds against bacterial strains were determined on the basis of a microwell dilution method. […] […]. Growth of microorganisms was determined visually after incubation for 24 h at 35 °C. The lowest concentration at which there was no visible growth (turbidity) was taken as the MIC.
# [2] = tested on: S. aureus MRSA ATCC 46300; test: Microdilution MIC assay; settings: Staphylococcus aureus; S. aureus MRSA ATCC 46300, 24 h at 35 °C; read-out: MIC
# Method: as §3
# E. coli ATCC 25922 = test: Microdilution MIC assay; settings: Escherichia coli, ATCC25922; E. coli ATCC 25922, 24 h at 35 °C
# Method: as §3
# E. coli ESBL ATCC 35218 = test: Microdilution MIC assay; settings: Escherichia coli, ATCC35218; E. coli ESBL ATCC 35218, 24 h at 35 °C
# Method: as §3
# S. aureus ATCC 25923 = test: Microdilution MIC assay; settings: Staphylococcus aureus, ATCC25923, 24 h, S. aureus ATCC 25923, 24 h at 35 °C; read-out: MIC
# Method: as §3
# [3] = tested on: E. faecalis VRE ATCC 19433; test: Microdilution MIC assay; settings: Enterococcus faecalis; E. faecalis VRE ATCC 19433, 24 h at 35 °C
# Method: as §3
# [4] = LDH cytotoxic activity assay, HT29; settings: human, HT29 cells; for cytotoxicity at 24 h, 25 μg/mL: HT29, 25 μg/mL; for cytotoxicity at 24 h, 50 μg/mL: HT29, 50 μg/mL; for cytotoxicity at 24 h, 75 μg/mL: HT29, 75 μg/mL; for cytotoxicity at 24 h, 100 μg/mL: HT29, 100 μg/mL
# Method in brief: as §2
# [5] = LDH cytotoxic activity assay, HeLa; settings: human, HeLa cells
# Method in brief: as §2
# in vitro = settings: human, LC50
# Method in brief: as §1
# normal FL cells = test: cells; settings: FL normal cells, MTT; for IC50: read-out: IC50; for IC (total growth inhibition): read-out: TGI
# Method in brief: as §1
compound,measurement,setting,value
"Cc1ccc(-c2cc(-c3ccccn3)nc(N[C@@H]3O[C@H](CO)[C@@H](O)[C@H](O)[C@H]3O)n2)cc1 [Compound 7, N-[4-(4-methylphenyl)-6-pyridin-2-ylpyrimidin-2-yl]-β-D-glucopyranosylamine]",LC50 (concentration causing 50% net cell loss relative to time zero),MCF7,> 500 µg/mL
same,GI50,MCF7,2.04 µg/mL
same,IC50,MCF7,> 500 µg/mL
same,IC (total growth inhibition),MCF7,> 500 µg/mL
same,LC50 (concentration causing 50% net cell loss),A549,> 500 µg/mL
same,GI50,A549,125 µg/mL
same,IC50,A549,> 500 µg/mL
same,IC (total growth inhibition),A549,> 500 µg/mL
same,GI50,HeLa,7.17 µg/mL
same,IC50,HeLa,31.9 µg/mL
same,IC (total growth inhibition),HeLa,21.6 µg/mL
same,LC50 (concentration causing 50% net cell loss),HeLa,120 µg/mL
same,LC50 (concentration giving 50% net cell loss relative to time zero),HT29,> 500 µg/mL
same,GI50,HT29,2.5 µg/mL
same,IC50,HT29,29.9 µg/mL
same,IC (total growth inhibition),HT29,49.2 µg/mL
same,LC50 (concentration giving 50% net cell loss relative to time zero),C6 (Rat brain glioma),88.3 µg/mL
same,GI50,C6 (Rat brain glioma),8.15 µg/mL
same,IC50,C6 (Rat brain glioma),29.3 µg/mL
same,IC (total growth inhibition),C6 (Rat brain glioma),21.5 µg/mL
same,GI50,Hep3B,4.26 µg/mL
same,IC50,Hep3B,183 µg/mL
same,IC (total growth inhibition),Hep3B,194 µg/mL
same,LC50 (concentration causing 50% net cell loss relative to time zero),Hep3B,> 500 µg/mL
same,"cytotoxicity at 24 h, 25 μg/mL",[1],22%
same,"cytotoxicity at 24 h, 50 μg/mL",[1],48.6%
same,"cytotoxicity at 24 h, 75 μg/mL",[1],69.5%
same,"cytotoxicity at 24 h, 100 μg/mL",[1],85.8%
same,MIC,S. gordonii NCTC 7870,500 µg/mL
same,MIC,[2],250 µg/mL
same,MIC,E. coli ATCC 25922,> 1000 µg/mL
same,MIC,E. coli ESBL ATCC 35218,> 1000 µg/mL
same,MIC,S. aureus ATCC 25923,250 µg/mL
same,MIC,[3],1000 µg/mL
same,"cytotoxicity at 24 h, 25 μg/mL",[4],26%
same,"cytotoxicity at 24 h, 50 μg/mL",[4],40.7%
same,"cytotoxicity at 24 h, 75 μg/mL",[4],75.9%
same,"cytotoxicity at 24 h, 100 μg/mL",[4],91.8%
same,"cytotoxicity at 24 h, 25 μg/mL",[5],11.9%
same,"cytotoxicity at 24 h, 50 μg/mL",[5],25.1%
same,"cytotoxicity at 24 h, 75 μg/mL",[5],38.4%
same,"cytotoxicity at 24 h, 100 μg/mL",[5],50.7%
same,LC50 (concentration causing 50% net cell loss),in vitro,> 500 µg/mL
same,GI50,normal FL cells,6.1 µg/mL
same,IC50,normal FL cells,255 µg/mL
same,IC (total growth inhibition),normal FL cells,266 µg/mL
"CC(=O)OC[C@H]1O[C@@H](Nc2nc(-c3ccncc3)cc(-c3ccccc3C)n2)[C@H](OC(C)=O)[C@@H](OC(C)=O)[C@@H]1OC(C)=O [Compound 12, 2,3,4,6-tetra-O-acetyl-N-[4-(2-methylphenyl)-6-pyridin-4-ylpyrimidin-2-yl]-β-D-glucopyranosylamine]",LC50 (concentration causing 50% net cell loss relative to time zero),MCF7,> 500 µg/mL
same,GI50,MCF7,1.22 µg/mL
same,IC50,MCF7,> 500 µg/mL
same,IC (total growth inhibition),MCF7,> 500 µg/mL
same,LC50 (concentration causing 50% net cell loss),A549,> 500 µg/mL
same,GI50,A549,> 500 µg/mL
same,IC50,A549,> 500 µg/mL
same,IC (total growth inhibition),A549,> 500 µg/mL
same,GI50,HeLa,> 500 µg/mL
same,IC50,HeLa,> 500 µg/mL
same,IC (total growth inhibition),HeLa,> 500 µg/mL
same,LC50 (concentration causing 50% net cell loss),HeLa,> 500 µg/mL
same,LC50 (concentration giving 50% net cell loss relative to time zero),HT29,> 500 µg/mL
same,GI50,HT29,2.23 µg/mL
same,IC50,HT29,298 µg/mL
same,IC (total growth inhibition),HT29,> 500 µg/mL
same,LC50 (concentration giving 50% net cell loss relative to time zero),C6 (Rat brain glioma),139 µg/mL
same,GI50,C6 (Rat brain glioma),2.03 µg/mL
same,IC50,C6 (Rat brain glioma),13 µg/mL
same,IC (total growth inhibition),C6 (Rat brain glioma),6.49 µg/mL
same,GI50,Hep3B,4.88 µg/mL
same,IC50,Hep3B,> 500 µg/mL
same,IC (total growth inhibition),Hep3B,> 500 µg/mL
same,LC50 (concentration causing 50% net cell loss relative to time zero),Hep3B,> 500 µg/mL
same,"cytotoxicity at 24 h, 25 μg/mL",[1],21.1%
same,"cytotoxicity at 24 h, 50 μg/mL",[1],46.7%
same,"cytotoxicity at 24 h, 75 μg/mL",[1],75.2%
same,"cytotoxicity at 24 h, 100 μg/mL",[1],87.4%
same,MIC,S. gordonii NCTC 7870,> 1000 µg/mL
same,MIC,[2],500 µg/mL
same,MIC,E. coli ATCC 25922,> 1000 µg/mL
same,MIC,E. coli ESBL ATCC 35218,> 1000 µg/mL
same,MIC,S. aureus ATCC 25923,> 1000 µg/mL
same,MIC,[3],1000 µg/mL
same,"cytotoxicity at 24 h, 25 μg/mL",[4],30.7%
same,"cytotoxicity at 24 h, 50 μg/mL",[4],41.9%
same,"cytotoxicity at 24 h, 75 μg/mL",[4],62.6%
same,"cytotoxicity at 24 h, 100 μg/mL",[4],77.6%
same,"cytotoxicity at 24 h, 25 μg/mL",[5],18.8%
same,"cytotoxicity at 24 h, 50 μg/mL",[5],30.8%
same,"cytotoxicity at 24 h, 75 μg/mL",[5],42.6%
same,"cytotoxicity at 24 h, 100 μg/mL",[5],49.6%
same,LC50 (concentration causing 50% net cell loss),in vitro,> 500 µg/mL
same,GI50,normal FL cells,3.68 µg/mL
same,IC50,normal FL cells,> 500 µg/mL
same,IC (total growth inhibition),normal FL cells,> 500 µg/mL
